Test results: patent US8742082B2, “Compositions and methods for influencing satiety, lipid metabolism, and fat utilization” (Nestec S.A., priority 2008, dated 2014)

Tests used:
[1] = cited from earlier work
[2] = system: Sterol regulatory element binding protein-C 2 (SREBP2 1); assay: Real-time PCR gene expression in peripheral tissues: SREBP2; type: in vivo; conditions: liver; C57bl6j mice, high fat diet, 100 mg/kg/body weight in diet, 5 weeks
Protocol: (§1) The expression of 45 genes was measured by real-time PCR in peripheral tissues to identify genes that were differentially expressed in response to oral administration of oleoylethanolamide (OEA) or a non-hydrolysable OEA analog (KDS 5104), which affect satiety, lipid metabolism, fat utilization, food intake, and body fat mass.
(§2) Animals, diet, and experimental design. Adult male C57bl6j mice purchased at 8 weeks of age were individually housed and maintained ad libitum on high fat diet and water for 2 weeks. Seven mice were randomly allocated in 3 groups and fed with a high fat diet (lipids represented 50% of daily energy) for 2 weeks. […]
(§3) RNA extraction and gene expression. […] The RNA concentration was determined on nanodrop from the absorbance at 260 nm. […] Real-time quantitative PCR (RT-qPCR) were performed on cDNA obtained as described above using a high through put system (Biomek 3000, Beckman & Coulter, Fullerton, USA) and a Lightcycler 480 (Roche/Hitachi, Basel, Switzerland) with SYBR Green Master mix+kit (Eurogentec, Philadelphia, USA). […] Values were expressed as ratio of RNA levels relative to control mice (diets with 0 mg of OEA/kg/body weight) using ΔΔ(Ct) (Livak K J & Schmittgen T D, 2001, Methods 25:402-8). Gene expression of the following genes was measured (abbreviation and GenBank Accession shown in parentheses). […]

[3] = system: Sterol regulatory element binding protein-c 1 (SREBP 1c); assay: Real-time PCR gene expression in peripheral tissues: SREBP1c; type: in vivo; conditions: C57bl6j mice, high fat diet, 100 mg/kg/body weight in diet, 5 weeks
Protocol: as §1
(§4) Animals, diet, and experimental design. Adult male C57bl6j mice purchased at 8 weeks of age were individually housed and maintained ad libitum on high fat diet and water for 2 weeks. Seven mice were randomly allocated in 3 groups and fed with a high fat diet (lipids represented 50% of daily energy) for 2 weeks. For one kilogram, the composition of the high fat diet was: 235 g casein, 201 g saccharose, 3.5 g L-cystine, 85 g starch, 116 g maltodextrin, 60 g cellulose, 12 g vitamins mix (AIN-93M, UPAE, Jouy-en-Josas, France), 51.5 g mineral mix (AIN-93Vx, UPAE, Jouy-en-Josas, France), and 236 g lard. Then, either OEA or KDS 5104 was added to the diet at a concentration of 100 mg/kg/body weight. The mice were kept under treatment for 5 weeks.
(§5) Sampling. At the end of the experimental period, mice were sacrificed by blood drawing (cardiac puncture) after anesthesia with isoflurane. Plasma was obtained by centrifugation (1,000 g for 10 min at 4° C.). Mesenteric, epididymal, inguinal and peritoneal adipose depots, as well as liver, stomach, small intestine mucosa, pancreas, and gastrocnemian muscle were removed and frozen into liquid nitrogen. Plasma, urine, feces, and organ samples were kept at −80° C. until analysis.
(§6) RNA extraction and gene expression. Total RNA from liver, intestine mucous membrane, adipose tissues, gastrocnemian muscle, pancreas and stomach were extracted with TRIzol reagent (Invitrogen, Carlsbad, USA) according to the manufacturer's instruction. The RNA concentration was determined on nanodrop from the absorbance at 260 nm. Retro-transcription PCRs to synthesize cDNA were performed using an Applied Biosystem Thermal Cycler 2720 and Superscript II (Invitrogen, Carlsbad, USA) according to manufacturer's protocol. Real-time quantitative PCR (RT-qPCR) were performed on cDNA obtained as described above using a high through put system (Biomek 3000, Beckman & Coulter, Fullerton, USA) and a Lightcycler 480 (Roche/Hitachi, Basel, Switzerland) with SYBR Green Master mix+kit (Eurogentec, Philadelphia, USA). Primers for the selected genes were generated using online informatics assistance from the Lightcycler manufacturer (Roche). Databases used to identify the genes were (1) the NCBI database (GenBank) and (2) the IHOP (Information Hyperlinked over Protein) database (www.ihop-net.org/UniPub/iHOP/bng/). Values were expressed as ratio of RNA levels relative to control mice (diets with 0 mg of OEA/kg/body weight) using ΔΔ(Ct) (Livak K J & Schmittgen T D, 2001, Methods 25:402-8). Gene expression of the following genes was measured (abbreviation and GenBank Accession shown in parentheses).
(§7) Statistical analysis. […] Statistical analysis of physiological parameters and gene expression data was performed by one-way ANOVA on Statview software (SAS Institute, Cary, USA). Daily food intake was analyzed using two-way ANOVA on Statview software. Statistical significance was set up at the P<0.05 level, the P<0.01 level and the P<0.001 level. For statistical analysis of the gene expression data, values were calculated relative to 18S expression for each mouse and gene.

Ghrelin = assay: Real-time PCR gene expression in peripheral tissues: ghrelin; type: in vivo; conditions: stomach; C57bl6j mice, high fat diet, 100 mg/kg/body weight in diet, 5 weeks
Protocol: as §1, §2, §3

[4] = system: Glucose 6-phosphatase (G6P); assay: Real-time PCR gene expression in peripheral tissues: G6P; type: in vivo; conditions: liver; C57bl6j mice, high fat diet, 100 mg/kg/body weight in diet, 5 weeks
Protocol: as §1, §2, §3

[5] = system: Fasting induced adipocyte factor (Fiaf); assay: Real-time PCR gene expression in peripheral tissues: Fiaf; type: in vivo; conditions: C57bl6j mice, high fat diet, 100 mg/kg/body weight in diet, 5 weeks
Protocol: as §1, §4, §5, §6, §7

[6] = system: Cannabinoid receptor 1 (CB 1); assay: Real-time PCR gene expression in peripheral tissues: CB1; type: in vivo; conditions: C57bl6j mice, high fat diet, 100 mg/kg/body weight in diet, 5 weeks
Protocol: as §1, §4, §5, §6, §7

[7] = target: G-protein coupled cannabinoid receptor GPR119 (Homo sapiens, UniProt Q8TDV5); conditions: cited from earlier work
[8] = system: Protein convertase subtilisin/kexin type 9 (PCSK 9); assay: Real-time PCR gene expression in peripheral tissues: PCSK9; type: in vivo; conditions: liver; C57bl6j mice, high fat diet, 100 mg/kg/body weight in diet, 5 weeks
Protocol: as §1, §2, §3

[9] = Chronic oral OEA in high fat diet: food intake; type: in vivo; conditions: C3H mice, 4 weeks
Text: The physiological and biochemical effects of chronic oral OEA administration were investigated. Mice were chronically fed with OEA, provided as a supplement during 4 weeks, to study the effect on body weight gain and cumulative food intake, among other parameters.
Animals, diet and experimental design. Adult male C3H mice purchased at 8 weeks of age were individually housed and maintained ad libitum on different diets and water for 2 weeks. Seven mice were allocated in 3 groups by randomization by weight, and fed with a high fat diet (lipids represented 50% of daily energy) during 2 weeks. The composition of the high fat diet per kg was: 284.5 g of corn starch, 89.5 g of saccharose, 250 g of casein, 50 g of cellulose, 10 g of a mix of vitamins (V1001), 35 g of a mix of minerals (S10026) and 281 g of canola oil (UPAE, Jouy en Josas, France). Then, OEA was added to the diets at different levels to provide 0, 10, or 100 mg OEA/kg body weight. The mice were kept on each respective diet for 4 weeks. During the nutritional intervention, daily food intake was monitored and the mice were weighed 3 times a week.
Statistical analysis. Results were determined as mean±standard error of the mean (SEM). Statistical analysis of physiological parameters was performed by one-way ANOVA on Statview software (SAS institute, Cary, USA). Statistical significance was set up at the P<0.05 level.

[10] = oral, over the 12 first hours; cited from earlier work
[11] = rodents, intraperitoneal administration

G-protein coupled cannabinoid receptor GPR119, sequence (Q8TDV5 whole entry): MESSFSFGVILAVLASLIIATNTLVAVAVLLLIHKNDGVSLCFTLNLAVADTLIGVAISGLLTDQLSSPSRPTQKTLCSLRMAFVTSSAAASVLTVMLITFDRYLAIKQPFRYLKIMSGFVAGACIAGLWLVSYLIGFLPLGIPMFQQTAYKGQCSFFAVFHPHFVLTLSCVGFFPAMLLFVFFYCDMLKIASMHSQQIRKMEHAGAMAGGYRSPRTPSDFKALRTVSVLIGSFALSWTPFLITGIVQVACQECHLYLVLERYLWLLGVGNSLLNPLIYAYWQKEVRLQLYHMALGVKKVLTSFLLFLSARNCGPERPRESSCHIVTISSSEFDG

CCCCCCCC/C=C\CCCCCCCC(=O)NCCO [OEA, N-oleoyl-ethanolamide]
food intake (meal size, first meal delay, meal intervals) ([1]; administrated intraperitoneally): reduced food intake
body fat gain [1, 11]: reduced body fat gain
satiety and lipid utilization [1, 11]: induce satiety and peripheral utilization of lipid substrate
SREBP2 l, ratio of RNA levels relative to control mice [2]: 1.22
SREBP1c at ep, ratio of RNA levels relative to control mice ([3]; epidydimal adipose tissue): 1.08
SREBP1c l, ratio of RNA levels relative to control mice ([3]; liver): 1.24
SREBP1c at per, ratio of RNA levels relative to control mice ([3]; peritoneal adipose tissue): −1.39
ghrelin s, ratio of RNA levels relative to control mice (Ghrelin): 1.98
G6P l, ratio of RNA levels relative to control mice [4]: 1.29
Fiaf at ep, ratio of RNA levels relative to control mice ([5]; epidydimal adipose tissue): −1.41
Fiaf at per, ratio of RNA levels relative to control mice ([5]; peritoneal adipose tissue): −2.42
Fiaf i, ratio of RNA levels relative to control mice ([5]; proximal intestine): 1.15
CB1 at ep, ratio of RNA levels relative to control mice ([6]; epidydimal adipose tissue): −1.94
CB1 at per, ratio of RNA levels relative to control mice ([6]; peritoneal adipose tissue): −5.27
CB1 i, ratio of RNA levels relative to control mice ([6]; proximal intestine): −1.02
binding to GPR119 [7]: can also bind
PCSK9 l, ratio of RNA levels relative to control mice [8]: 1.44
Dose dependence of the effect on food intake ([9]; 10 vs 100 mg/kg body weight): not dose dependent
Food intake, change in mice consuming OEA ([9]; high fat diet, OEA 10 or 100 mg/kg body weight in diet, P<0.05): −6.5%
food intake after acute gavage [10]: decrease significantly
